{"source": "patent US9498450B2", "about": "“1-aminocyclohexane derivatives for the treatment of cochlear tinnitus” (MERZ PHARMA GmbH & CO. KGaA, priority 2007, dated 2016)", "test_system": "subjects with subjective tinnitus of at least moderate severity", "test": "Double blind placebo controlled pilot trial of neramexane for treatment of tinnitus (TBF-12/THF-12 total score)", "assay_type": "in vivo, human", "details": "for Change in TBF-12 total score, Week 16 Neramexane-Placebo LSMean / TBF-12 total score, Change LSMean / TBF-12 total score, Neramexane-Placebo LSMean Diff. ± SE / TBF-12 total score, Week 16 Change Mean ± SD / TBF-12 total score, Week 16 Actual Mean ± SD: ITT-LOCF; for TBF-12 total score, Change LSMean / TBF-12 total score, Neramexane-Placebo LSMean Diff. ± SE / TBF-12 total score, Week 16 Change Mean ± SD: baseline to week 16; for improvement as compared to placebo treatment (difference): 50 mg dose group", "experimental": "Visit 1 (screening): After signing the consent form, the subject underwent a physical examination and clinical laboratory testing. Patient eligibility for the study was evaluated via a check of inclusion/exclusion criteria. An initial Tinnitus Interview was conducted. The subject also completed a Tinnitus-Beeinträchtigungs-Fragebogen (THF-12) (i.e., a 12-item German modified and validated version (Greimel K V et al., Tinnitus-Beeinträchtigungs-Fragebogen (THF-12). Manual. Frankfurt am Main: Swets & Zeitlinger B. V.; 2000) of the 25-item Tinnitus Handicap Inventory or THI (Newman C W, et al. Development of the Tinnitus Handicap Inventory. Arch Otolaryngol Head Neck Surg 1996; 122(2): 143-148; Newman C W, et al. Psychometric adequacy of the Tinnitus Handicap Inventory (THI) for evaluating treatment outcome. J Am Acad Audiol 1998; 9(2): 153-160.)), a Hospital Anxiety and Depression Scale—Depression Subscale (HADS-D) Questionnaire and a Hyperacusis (Geräuschüberempfindlichkeit-Fragenbogen (GÜF)) Questionnaire (if applicable).\nVisit 2 (baseline): The subject was asked about adverse events and changes in concomitant medication/disease, which events/changes were documented. The subject was evaluated for study eligibility based on a review of the inclusion/exclusion criteria. Trial procedures as well as allowed and forbidden concomitant medications were reviewed with the subject. An initial Tinnitus Interview was conducted. The subject also completed a THF-12, HADS-D Questionnaire and GÜF Questionnaire (if applicable). The subject was enrolled in the study and study medication (placebo or neramexane) was dispensed as described below.\nVisit 6 (Week 16, end of treatment): This visit occurred at the end of the 12-week fixed-dose double-blind treatment period. The subject was asked about adverse events and changes in concomitant medication/disease, which changes are documented. A clinical laboratory evaluation was performed. A follow-up Tinnitus Interview was conducted, and the subject completed a THF-12, HADS-D Questionnaire and GÜF Questionnaire (if applicable). Pure-tone audiometry (air conduction) was also conducted.\nPrimary Outcome • The change in THF-12 total score from baseline (Visit 2) to the endpoint visit (Visit 6, i.e. Week 16) was the primary efficacy endpoint in this study.\nAll efficacy analyses were performed on the ITT population using the last-observation-carried-forward (LOCF) approach. For sensitivity purposes an analysis of the per-protocol set and of observed cases was performed additionally. All statistical tests used for testing the primary efficacy (confirmatory testing) and secondary efficacy criteria (exploratory), and all other statistical tests used for exploratory analyses were two-sided hypothesis tests performed at the 5% significance level. For all variables standard descriptive statistics were calculated.\nChange from baseline (Visit 2) to Week 16 in THF-12 total score was analyzed using a two-way ANCOVA model with treatment group and study centers as factors and baseline THF-12 total score as covariate. […]", "key": {"[1]": {"details": "25 mg/d, subjects with mild hearing loss"}, "[2]": {"details": "25 mg/d, subjects with tinnitus duration 3 to <8 months"}, "[3]": {"details": "25 mg/d, total study population"}, "[4]": {"details": "50 mg/d, subjects with mild hearing loss"}, "[5]": {"details": "50 mg/d, subjects with tinnitus duration 3 to <8 months"}, "[6]": {"details": "50 mg/d, total study population"}, "[7]": {"details": "75 mg/d, subjects with mild hearing loss"}, "[8]": {"details": "75 mg/d, subjects with tinnitus duration 3 to <8 months"}, "[9]": {"details": "75 mg/d, total study population"}}, "data": [{"smiles": "CC1(C)CC(C)(C)CC(C)(N)C1", "note": "[Neramexane, 1-amino-1,3,3,5,5-pentamethylcyclohexane]", "values": [{"measurement": "Change in TBF-12 total score, Week 16 Neramexane-Placebo LSMean", "setting": "25 mg/d, HADS-D Anxiety subscale 0-7 at baseline", "value": 0.2}, {"measurement": "Change in TBF-12 total score, Week 16 Neramexane-Placebo LSMean", "setting": "25 mg/d, HADS-D Anxiety subscale 8-10 at baseline", "value": "−2.3"}, {"measurement": "Change in TBF-12 total score, Week 16 Neramexane-Placebo LSMean", "setting": "25 mg/d, HADS-D Anxiety subscale >10 at baseline", "value": 2.3}, {"measurement": "Change in TBF-12 total score, Week 16 Neramexane-Placebo LSMean", "setting": "25 mg/d, HADS-D Depression subscale 0-7 at baseline", "value": "−0.3"}, {"measurement": "Change in TBF-12 total score, Week 16 Neramexane-Placebo LSMean", "setting": "25 mg/d, HADS-D Depression subscale 8-10 at baseline", "value": 0.6}, {"measurement": "Change in TBF-12 total score, Week 16 Neramexane-Placebo LSMean", "setting": "25 mg/d, HADS-D Depression subscale >10 at baseline", "value": 3.9}, {"measurement": "TBF-12 total score, Change LSMean", "setting": "[1]", "value": "−1.3"}, {"measurement": "TBF-12 total score, Neramexane-Placebo LSMean Diff. ± SE", "setting": "[1]", "value": "0.7 ± 0.9"}, {"measurement": "TBF-12 total score, Week 16 Change Mean ± SD", "setting": "[1]", "value": "−1.5 ± 3.4"}, {"measurement": "TBF-12 total score, Week 16 Actual Mean ± SD", "setting": "25 mg/d, subjects with mild hearing loss, score range 0-24", "value": "13.1 ± 5.8"}, {"measurement": "TBF-12 total score, Change LSMean", "setting": "[2]", "value": "−2.2"}, {"measurement": "TBF-12 total score, Neramexane-Placebo LSMean Diff. ± SE", "setting": "[2]", "value": "0.0 ± 0.8"}, {"measurement": "TBF-12 total score, Week 16 Change Mean ± SD", "setting": "[2]", "value": "−2.5 ± 3.0"}, {"measurement": "TBF-12 total score, Change LSMean", "setting": "[3]", "value": "−1.8"}, {"measurement": "TBF-12 total score, Neramexane-Placebo LSMean Diff. ± SE", "setting": "[3]", "value": "0.5 ± 0.5"}, {"measurement": "TBF-12 total score, Week 16 Change Mean ± SD", "setting": "[3]", "value": "−2.0 ± 3.4"}, {"measurement": "improvement as compared to placebo treatment (difference)", "setting": "patients who showed a mild hearing loss, post-hoc p=0.024", "value": "−1.9", "unit": "points"}, {"measurement": "improvement as compared to placebo treatment (difference)", "setting": "patients whose onset of tinnitus was three to eight months before treatment, post-hoc p=0.019", "value": "−1.9", "unit": "points"}, {"measurement": "Change in TBF-12 total score, Week 16 Neramexane-Placebo LSMean", "setting": "50 mg/d, HADS-D Anxiety subscale 0-7 at baseline", "value": "−0.5"}, {"measurement": "Change in TBF-12 total score, Week 16 Neramexane-Placebo LSMean", "setting": "50 mg/d, HADS-D Anxiety subscale 8-10 at baseline", "value": "−2.9"}, {"measurement": "Change in TBF-12 total score, Week 16 Neramexane-Placebo LSMean", "setting": "50 mg/d, HADS-D Anxiety subscale >10 at baseline", "value": 0.6}, {"measurement": "Change in TBF-12 total score, Week 16 Neramexane-Placebo LSMean", "setting": "50 mg/d, HADS-D Depression subscale 0-7 at baseline", "value": "−1.3"}, {"measurement": "Change in TBF-12 total score, Week 16 Neramexane-Placebo LSMean", "setting": "50 mg/d, HADS-D Depression subscale 8-10 at baseline", "value": "−1.1"}, {"measurement": "Change in TBF-12 total score, Week 16 Neramexane-Placebo LSMean", "setting": "50 mg/d, HADS-D Depression subscale >10 at baseline", "value": 3.3}, {"measurement": "TBF-12 total score, Change LSMean", "setting": "[4]", "value": "−3.9"}, {"measurement": "TBF-12 total score, Neramexane-Placebo LSMean Diff. ± SE", "setting": "[4]", "value": "−1.9 ± 0.8"}, {"measurement": "TBF-12 total score, Week 16 Change Mean ± SD", "setting": "[4]", "value": "−3.8 ± 3.9"}, {"measurement": "TBF-12 total score, Week 16 Actual Mean ± SD", "setting": "50 mg/d, subjects with mild hearing loss, score range 0-24", "value": "11.5 ± 5.2"}, {"measurement": "TBF-12 total score, Change LSMean", "setting": "[5]", "value": "−4.0"}, {"measurement": "TBF-12 total score, Neramexane-Placebo LSMean Diff. ± SE", "setting": "[5]", "value": "−1.9 ± 0.8"}, {"measurement": "TBF-12 total score, Week 16 Change Mean ± SD", "setting": "[5]", "value": "−4.2 ± 3.9"}, {"measurement": "TBF-12 total score, Week 16 Actual Mean ± SD", "setting": "50 mg/d, subjects with tinnitus duration 3 to <8 months, score range 0-24", "value": "10.0 ± 5.1"}, {"measurement": "TBF-12 total score, Change LSMean", "setting": "[6]", "value": "−3.1"}, {"measurement": "TBF-12 total score, Neramexane-Placebo LSMean Diff. ± SE", "setting": "[6]", "value": "−0.8 ± 0.5"}, {"measurement": "TBF-12 total score, Week 16 Change Mean ± SD", "setting": "[6]", "value": "−3.2 ± 4.1"}, {"measurement": "Change in TBF-12 total score, Week 16 Neramexane-Placebo LSMean", "setting": "75 mg/d, HADS-D Anxiety subscale 0-7 at baseline", "value": 0.1}, {"measurement": "Change in TBF-12 total score, Week 16 Neramexane-Placebo LSMean", "setting": "75 mg/d, HADS-D Anxiety subscale 8-10 at baseline", "value": "−3.1"}, {"measurement": "Change in TBF-12 total score, Week 16 Neramexane-Placebo LSMean", "setting": "75 mg/d, HADS-D Anxiety subscale >10 at baseline", "value": 0.3}, {"measurement": "Change in TBF-12 total score, Week 16 Neramexane-Placebo LSMean", "setting": "75 mg/d, HADS-D Depression subscale 0-7 at baseline", "value": "−0.9"}, {"measurement": "Change in TBF-12 total score, Week 16 Neramexane-Placebo LSMean", "setting": "75 mg/d, HADS-D Depression subscale 8-10 at baseline", "value": 0.0}, {"measurement": "Change in TBF-12 total score, Week 16 Neramexane-Placebo LSMean", "setting": "75 mg/d, HADS-D Depression subscale >10 at baseline", "value": 0.4}, {"measurement": "TBF-12 total score, Change LSMean", "setting": "[7]", "value": "−1.8"}, {"measurement": "TBF-12 total score, Neramexane-Placebo LSMean Diff. ± SE", "setting": "[7]", "value": "−0.2 ± 0.9"}, {"measurement": "TBF-12 total score, Week 16 Change Mean ± SD", "setting": "[7]", "value": "−1.9 ± 3.2"}, {"measurement": "TBF-12 total score, Week 16 Actual Mean ± SD", "setting": "75 mg/d, subjects with mild hearing loss, score range 0-24", "value": "12.0 ± 4.6"}, {"measurement": "TBF-12 total score, Change LSMean", "setting": "[8]", "value": "−3.3"}, {"measurement": "TBF-12 total score, Neramexane-Placebo LSMean Diff. ± SE", "setting": "[8]", "value": "−1.1 ± 0.8"}, {"measurement": "TBF-12 total score, Week 16 Change Mean ± SD", "setting": "[8]", "value": "−3.4 ± 4.0"}, {"measurement": "TBF-12 total score, Week 16 Actual Mean ± SD", "setting": "75 mg/d, subjects with tinnitus duration 3 to <8 months, score range 0-24", "value": "10.6 ± 5.0"}, {"measurement": "TBF-12 total score, Week 16 Actual Mean ± SD", "setting": "[9]", "value": "11.0 ± 5.1"}, {"measurement": "TBF-12 total score, Change LSMean", "setting": "[9]", "value": "−2.8"}, {"measurement": "TBF-12 total score, Neramexane-Placebo LSMean Diff. ± SE", "setting": "[9]", "value": "−0.5 ± 0.5"}, {"measurement": "TBF-12 total score, Week 16 Change Mean ± SD", "setting": "[9]", "value": "−2.9 ± 3.9"}, {"measurement": "benefit compared to patients with HADS score below 10 at baseline", "setting": "50 or 75 mg daily dose monotherapy, patients with HADS total score of 10 or more at baseline", "value": "weaker benefit"}, {"measurement": "response (effect in treating tinnitus) compared to total study population", "setting": "patients treated within three to eight months of onset of tinnitus and patients with mild hearing loss", "value": "better response"}, {"measurement": "response to treatment (subgroup analysis)", "setting": "subjects classified by investigators as suffering from cochlear tinnitus", "value": "responded well"}]}]}
